Assay results: patent publication US20250179083A1, “TRICYCLIC TRIAZOLO COMPOUNDS AS DGK INHIBITORS” (Incyte Corporation, priority 2023, published 2025)

What was measured:
DGKα = biological target: T1, DGKα (Homo sapiens, UniProt P23743); assay: In vitro DGKα inhibition assay (ADP-Glo); assay type: biochemical; settings: His-tagged human recombinant DGKα 0.1 nM, 50 μM ATP, 20 μM DLG, 90 minute incubation
T1 construct: His; purchased Signal Chem D21-10BH
Method: (§1) The DGKα and DGKζ biochemical reactions were performed using His-tagged human recombinant enzymes (Signal Chem, DGKα, #D21-10BH; DGKζ, #D30-10H)) and DLG (Dilauroyl-sn-glycerol) lipid substrate (Signal Chem, #D430-59). ADP-Glo assay was performed using ADP-Glo™ kinase Assay kit (Promega, #V9104). The reactions were carried out in assay buffer containing 40 mM Tris, pH 7.5, 0.1% CHAPS, 0.1% Prionex, 40 mM NaCl, 5 mM MgCl2, 1 mM CaCl2, and 1 mM DTT. DGKα reactions contained 0.1 nM DGKα, 50 μM ATP, and 20 μM DLG. And DGKζ reactions contained 0.4 nM DGKζ, 30 μM ATP, and 20 μM DLG.
(§2) Compounds were added with top concentration of 2 mM with 11 point, 3-fold dilution series. Enzyme solution (contains 2×DGK enzyme concentration in 1× assay buffer) was added to the plate in 2 μL/well volume, followed by 2 μL/well of substrate solution (contains 2× concentration of ATP and DLG substrate in 1× assay buffer). Plates were then centrifuged for 1 min at 1200 RPM and sealed or lidded. For 4 μL reaction volume, test compounds were therefore diluted 100× to final top concentration of 20 μM. After 90 minute incubation, reactions were quenched by addition of 2 μL/well Promega ADP-Glo Reagent, followed by centrifugation and lidding. After 60 min incubation, 2 μL/well Promega Kinase Detection Reagent was added, plates centrifuged, and incubated for 30 min. Plates were then read using Luminescence method on BMG PHERAstar FSX plate reader. Percent inhibition was calculated and IC50s were determined using 4-parameter fit in Genedata Screener. Labcyte Echo acoustic dispenser was used for compound addition, and Formulatrix Tempest liquid handler was used for all reagent dispenses.

DGKζ = biological target: T2, DGKζ (Homo sapiens, UniProt Q13574); assay: In vitro DGKζ inhibition assay (ADP-Glo); assay type: biochemical; settings: His-tagged human recombinant DGKζ 0.4 nM, 30 μM ATP, 20 μM DLG, 90 minute incubation
T2 construct: His; purchased Signal Chem D30-10H
T2 sequence (Q13574 whole entry): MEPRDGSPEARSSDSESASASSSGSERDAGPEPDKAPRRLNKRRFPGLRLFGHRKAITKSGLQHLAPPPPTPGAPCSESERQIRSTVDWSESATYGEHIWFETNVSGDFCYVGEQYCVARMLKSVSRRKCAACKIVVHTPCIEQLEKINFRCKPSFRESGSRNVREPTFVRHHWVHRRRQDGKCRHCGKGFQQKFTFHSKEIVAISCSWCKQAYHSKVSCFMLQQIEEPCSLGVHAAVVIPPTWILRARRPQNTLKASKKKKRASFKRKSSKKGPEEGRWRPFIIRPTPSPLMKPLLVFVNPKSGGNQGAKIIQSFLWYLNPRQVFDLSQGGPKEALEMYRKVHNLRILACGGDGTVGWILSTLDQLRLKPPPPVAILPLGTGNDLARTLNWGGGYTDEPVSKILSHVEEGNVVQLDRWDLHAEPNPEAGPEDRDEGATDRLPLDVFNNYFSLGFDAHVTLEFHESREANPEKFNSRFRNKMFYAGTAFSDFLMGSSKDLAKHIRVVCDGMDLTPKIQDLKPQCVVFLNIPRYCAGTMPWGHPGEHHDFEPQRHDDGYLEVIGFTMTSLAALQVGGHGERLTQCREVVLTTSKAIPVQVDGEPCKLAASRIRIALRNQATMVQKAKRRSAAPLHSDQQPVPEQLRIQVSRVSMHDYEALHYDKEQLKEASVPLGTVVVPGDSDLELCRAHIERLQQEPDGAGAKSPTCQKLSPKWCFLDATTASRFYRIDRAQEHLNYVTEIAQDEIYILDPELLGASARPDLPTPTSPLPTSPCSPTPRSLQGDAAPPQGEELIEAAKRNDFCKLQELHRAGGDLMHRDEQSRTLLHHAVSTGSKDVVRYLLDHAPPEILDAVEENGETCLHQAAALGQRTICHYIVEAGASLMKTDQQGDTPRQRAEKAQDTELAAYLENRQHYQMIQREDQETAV
Method: as §1, §2

T1 sequence (P23743 whole entry): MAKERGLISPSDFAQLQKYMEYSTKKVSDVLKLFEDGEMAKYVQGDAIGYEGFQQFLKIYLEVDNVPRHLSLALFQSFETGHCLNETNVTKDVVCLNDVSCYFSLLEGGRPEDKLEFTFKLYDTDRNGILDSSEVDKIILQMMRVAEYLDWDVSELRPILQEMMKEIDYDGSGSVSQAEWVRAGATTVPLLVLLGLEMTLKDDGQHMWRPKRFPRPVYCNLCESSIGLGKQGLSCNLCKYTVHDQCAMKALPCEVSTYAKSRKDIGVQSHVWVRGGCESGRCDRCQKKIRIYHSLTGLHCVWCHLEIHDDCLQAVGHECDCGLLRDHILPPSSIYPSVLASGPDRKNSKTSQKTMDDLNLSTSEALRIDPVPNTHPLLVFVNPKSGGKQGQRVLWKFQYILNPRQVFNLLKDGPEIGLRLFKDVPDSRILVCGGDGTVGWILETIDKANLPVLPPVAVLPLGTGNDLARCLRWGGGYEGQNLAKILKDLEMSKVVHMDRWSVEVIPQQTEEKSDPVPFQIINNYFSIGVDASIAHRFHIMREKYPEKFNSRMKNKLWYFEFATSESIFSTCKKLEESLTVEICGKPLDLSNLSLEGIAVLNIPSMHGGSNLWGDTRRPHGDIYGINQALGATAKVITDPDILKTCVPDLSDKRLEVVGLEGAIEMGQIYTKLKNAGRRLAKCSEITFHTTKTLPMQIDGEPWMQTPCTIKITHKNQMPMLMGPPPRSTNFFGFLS

| Structure (SMILES) | IC50 (DGKα) [nM] | IC50 (DGKζ) [nM] |
| --- | --- | --- |
| Cc1nc2c(N3C[C@@H](C)N([C@@H](c4ccc(Cl)cc4)C(C)C)C[C@@H]3C)cc3nncn3c2n1C[C@@H]1CCCO1 [Example 66, 4-((2S,5R)-4-((R)-1-(4-chlorophenyl)-2-methylpropyl)-2,5-dimethylpiperazin-1-yl)-2-methyl-1-(((S)-tetrahydrofuran-2-yl)methyl)-1H-imidazo[4,5-e][1,2,4]triazolo[4,3-a]pyridine] | < 20 | < 20 |
| Cc1nc2c(N3C[C@@H](C)N(C(c4ccc(Cl)cc4F)C4CC(F)(F)C4)C[C@@H]3C)nc3nncn3c2n1C[C@@H]1CCCO1 (stereo partly drawn) [Example 5, 4-((2S,5R)-4-((4-Chloro-2-fluorophenyl)(3,3-difluorocyclobutyl)methyl)-2,5-dimethylpiperazin-1-yl)-2-methyl-1-(((S)-tetrahydrofuran-2-yl)methyl)-1H-[1,2,4]triazolo[3,4-b]purine] | < 20 | < 20 |
| C[C@@H]1CN(c2nc3nncn3c3c2ncn3C[C@@H]2CCCO2)[C@@H](C)CN1[C@H](c1ccc(Cl)cc1)c1ccc(Cl)cn1 (single isomer, unassigned) [Example 22] | < 20 | < 20 |
| CC(c1ccc(C(F)(F)F)cc1)N1C[C@H](C)N(c2nc3nncn3c3c2ncn3C[C@@H]2CCCO2)C[C@H]1C (stereo partly drawn) [Example 68, 4-((2S,5R)-2,5-Dimethyl-4-(1-(4-(trifluoromethyl)phenyl)ethyl)piperazin-1-yl)-1-(((S)-tetrahydrofuran-2-yl)methyl)-1H-[1,2,4]triazolo[3,4-b]purine] | < 20 | < 20 |
| C[C@@H]1CN(c2nc3nncn3c3c2ncn3C[C@@H]2CCCO2)[C@@H](C)CN1Cc1ccc(Cl)cc1 [Example 47, 4-((2S,5R)-4-(4-Chlorobenzyl)-2,5-dimethylpiperazin-1-yl)-1-(((S)-tetrahydrofuran-2-yl)methyl)-1H-[1,2,4]triazolo[3,4-b]purine] | < 20 | < 20 |
| CC[C@@H]1CN(c2nc3nncn3c3c2ncn3C[C@@H]2CCCO2)[C@@H](C)CN1C(c1ccc(C(F)(F)F)cc1)C1CC(F)(F)C1 (stereo partly drawn) [Example 35, 4-((2S,5R)-4-((3,3-Difluorocyclobutyl)(4-(trifluoromethyl)phenyl)methyl)-5-ethyl-2-methylpiperazin-1-yl)-1-(((S)-tetrahydrofuran-2-yl)methyl)-1H-[1,2,4]triazolo[3,4-b]purine] | < 20 | < 20 |
| Cc1nc2c(N3C[C@@H](C)N(Cc4ccc(Cl)c(F)c4)C[C@@H]3C)nc3nncn3c2n1C[C@@H]1CCCO1 [Example 76, 4-((2S,5R)-4-(4-Chloro-3-fluorobenzyl)-2,5-dimethylpiperazin-1-yl)-2-methyl-1-(((S)-tetrahydrofuran-2-yl)methyl)-1H-[1,2,4]triazolo[3,4-b]purine] | < 20 | < 20 |
| C[C@@H]1CN(c2nc3nncn3c3c2ncn3C[C@@H]2CCCO2)[C@@H](C)CN1[C@@H](c1ccc(Cl)cc1)c1ccc(Cl)cn1 (single isomer, unassigned) [Example 21] | < 20 | < 20 |
| CC[C@H](c1ccc(Cl)cc1)N1C[C@H](C)N(c2nc3nncn3c3c2ncn3C[C@@H]2CCCO2)C[C@H]1C [Example 58, 4-((2S,5R)-4-((R)-1-(4-chlorophenyl)propyl)-2,5-dimethylpiperazin-1-yl)-1-(((S)-tetrahydrofuran-2-yl)methyl)-1H-[1,2,4]triazolo[3,4-b]purine] | < 20 | < 20 |
| Cc1nc2c(N3C[C@@H](C)N(C(c4ccc(C(F)(F)F)cc4)C4CC(F)(F)C4)C[C@@H]3C)cc3nncn3c2n1C[C@@H]1CCCO1 (single isomer, unassigned) [Example 49] | < 20 | < 20 |
| C[C@@H]1CN(c2nc3nncn3c3c2ncn3C[C@@H]2CCCO2)[C@@H](C)CN1Cc1ccc(C(F)(F)F)cc1F [Example 38, 4-((2S,5R)-4-(2-Fluoro-4-(trifluoromethyl)benzyl)-2,5-dimethylpiperazin-1-yl)-1-(((S)-tetrahydrofuran-2-yl)methyl)-1H-[1,2,4]triazolo[3,4-b]purine] | < 20 | < 20 |
| C[C@@H]1CN(c2nc3nncn3c3c2ncn3CC2(O)CCCC2)[C@@H](C)CN1C(c1ccc(Cl)cc1)c1ccc(Cl)cc1 [Example 44, 1-((4-((2S,5R)-4-(Bis(4-chlorophenyl)methyl)-2,5-dimethylpiperazin-1-yl)-1H-[1,2,4]triazolo[3,4-b]purin-1-yl)methyl)cyclopentan-1-ol] | < 20 | < 20 |
| Cc1nc2c(N3C[C@@H](C)N([C@@H](c4ccc(Cl)cc4F)C(C)C)C[C@@H]3C)nc3nncn3c2n1C[C@@H]1CCCO1 [Example 29, 4-((2S,5R)-4-((R)-1-(4-chloro-2-fluorophenyl)-2-methylpropyl)-2,5-dimethylpiperazin-1-yl)-2-methyl-1-(((S)-tetrahydrofuran-2-yl)methyl)-1H-[1,2,4]triazolo[3,4-b]purine] | < 20 | < 20 |
| CC(c1ccc(Cl)c(F)c1)N1C[C@H](C)N(c2nc3nncn3c3c2ncn3C[C@@H]2CCCO2)C[C@H]1C (stereo partly drawn) [Example 88, 4-((2S,5R)-4-(1-(4-Chloro-3-fluorophenyl)ethyl)-2,5-dimethylpiperazin-1-yl)-1-(((S)-tetrahydrofuran-2-yl)methyl)-1H-[1,2,4]triazolo[3,4-b]purine] | 20 to 200 | < 20 |
| C[C@@H]1CN(c2cc3nncn3c3c2ncn3C[C@@H]2CCCO2)[C@@H](C)CN1C(c1ccc(Cl)cc1)[C@@H]1CC1(F)F (single isomer, unassigned) [Example 50] | < 20 | 20 to 200 |
| CC[C@@H]1CN(c2nc3nncn3c3c2nc(C)n3C[C@@H]2CCCO2)[C@@H](C)CN1C(c1ccc(Cl)cc1)C1CC(F)(F)C1 (stereo partly drawn) [Example 78, 4-((2S,5R)-4-((4-Chlorophenyl)(3,3-difluorocyclobutyl)methyl)-5-ethyl-2-methylpiperazin-1-yl)-2-methyl-1-(((S)-tetrahydrofuran-2-yl)methyl)-1H-[1,2,4]triazolo[3,4-b]purine] | < 20 | < 20 |
| Cc1nc2c(N3C[C@@H](C)N(C(c4ccc(Cl)c(F)c4)C(C)C)C[C@@H]3C)nc3nncn3c2n1C[C@@H]1CCCO1 (single isomer, unassigned) [Example 23] | < 20 | < 20 |
| CC(C)[C@H](c1ccc2cc(C(F)(F)F)ccc2n1)N1C[C@H](C)N(c2nc3nncn3c3c2ncn3C[C@@H]2CCCO2)C[C@H]1C [Example 84, 4-((2S,5R)-2,5-dimethyl-4-((R)-2-methyl-1-(6-(trifluoromethyl)quinolin-2-yl)propyl)piperazin-1-yl)-1-(((S)-tetrahydrofuran-2-yl)methyl)-1H-[1,2,4]triazolo[3,4-b]purine] | < 20 | < 20 |
| CC[C@@H]1CN(c2nc3nncn3c3c2nc(C)n3C[C@@H]2CCCO2)[C@@H](C)CN1Cc1ccc(C(F)(F)F)cc1 [Example 36, 4-((2S,5R)-5-Ethyl-2-methyl-4-(4-(trifluoromethyl)benzyl)piperazin-1-yl)-2-methyl-1-(((S)-tetrahydrofuran-2-yl)methyl)-1H-[1,2,4]triazolo[3,4-b]purine] | < 20 | < 20 |
| CC(C)CC(c1ccc(Cl)cc1)N1C[C@H](C)N(c2cc3nncn3c3c2ncn3C[C@@H]2CCCO2)C[C@H]1C (single isomer, unassigned) [Example 51] | < 20 | < 20 |
| Cc1nc2c(N3C[C@@H](C)N(C(c4ccc(Cl)c(F)c4F)C4CC(F)(F)C4)C[C@@H]3C)nc3nncn3c2n1C[C@@H]1CCCO1 (stereo partly drawn) [Example 80, 4-((2S,5R)-4-((4-Chloro-2,3-difluorophenyl)(3,3-difluorocyclobutyl)methyl)-2,5-dimethylpiperazin-1-yl)-2-methyl-1-(((S)-tetrahydrofuran-2-yl)methyl)-1H-[1,2,4]triazolo[3,4-b]purine] | < 20 | < 20 |
| Cc1nc2c(N3C[C@@H](C)N([C@@H](c4ccc(Br)cc4F)C(C)C)C[C@@H]3C)nc3nncn3c2n1C[C@@H]1CCCO1 [Example 27, 4-((2S,5R)-4-((R)-1-(4-bromo-2-fluorophenyl)-2-methylpropyl)-2,5-dimethylpiperazin-1-yl)-2-methyl-1-(((S)-tetrahydrofuran-2-yl)methyl)-1H-[1,2,4]triazolo[3,4-b]purine] | < 20 | < 20 |
| C[C@@H]1CN(c2nc3nncn3c3c2ncn3C[C@@H]2CCCO2)[C@@H](C)CN1C(C[C@@H](C)C(F)(F)F)c1ccc(Cl)cc1 (single isomer, unassigned) [Example 11] | < 20 | < 20 |
